From the supplement of paper PMC11061612

Columns and labels:
Assay in all cases: Bliss excess, mean over the matrix (fraction); higher = more synergy
[1] = tested on: DBTRG-05MG (Glioblastoma)
Outline: (§1)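 Cell lines grown in DMEM/F12 or RPMI with 10% FBS were plated in 1536-well plates and held 24 hours at 37°C, 5% CO2 before 72 hours of exposure to two-drug dose matrices, with DMSO typically at 0.2%. CellTiter-Glo 2.0 luminescence gave viability, which was converted to inhibition. Vehicle wells were set to 0 and blank wells to 1. Combination Emax is the second-highest inhibition in the matrix, and Bliss excess is the observed combination effect minus the expected EA + EB − EA·EB, where EA and EB are the single-agent effects.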

GAK (Melanoma) = tested on: GAK (Melanoma)
Outline: as §1

[2] = tested on: HT-1080 (Other Solid Carcinomas)
Outline: as §1

IST-MEL1 (Melanoma) = tested on: IST-MEL1 (Melanoma)
Outline: as §1

[3] = tested on: LCLC-103H (Non-Small Cell Lung Carcinoma)
Outline: as §1

[4] = tested on: MDA-MB-415 (Breast Carcinoma)
Outline: as §1

[5] = tested on: MM1S (Plasma Cell Myeloma)
Outline: as §1

[6] = tested on: MOLP-8 (Plasma Cell Myeloma)
Outline: as §1

[7] = tested on: MS-1 (Small Cell Lung Carcinoma)
Outline: as §1

[8] = tested on: NAMALWA (Burkitt's Lymphoma)
Outline: as §1

NB1 (Neuroblastoma) = tested on: NB1 (Neuroblastoma)
Outline: as §1

[9] = tested on: NCI-H1341 (Small Cell Lung Carcinoma)
Outline: as §1

NCI-H2373 (Mesothelioma) = tested on: NCI-H2373 (Mesothelioma)
Outline: as §1

[10] = tested on: NMC-G1 (Low Grade Glioma)
Outline: as §1

[11] = tested on: PA-TU-8988T (Pancreatic Carcinoma)
Outline: as §1

[12] = tested on: PL4 (Pancreatic Carcinoma)
Outline: as §1

SK-N-SH (Neuroblastoma) = tested on: SK-N-SH (Neuroblastoma)
Outline: as §1

T47D (Breast Carcinoma) = tested on: T47D (Breast Carcinoma)
Outline: as §1

UACC-257 (Melanoma) = tested on: UACC-257 (Melanoma)
Outline: as §1

WM35 (Melanoma) = tested on: WM35 (Melanoma)
Outline: as §1

SMILES | Bliss excess [1] | Bliss excess (GAK (Melanoma)) | Bliss excess [2] | Bliss excess (IST-MEL1 (Melanoma)) | Bliss excess [3] | Bliss excess [4] | Bliss excess [5] | Bliss excess [6] | Bliss excess [7] | Bliss excess [8] | Bliss excess (NB1 (Neuroblastoma)) | Bliss excess [9] | Bliss excess (NCI-H2373 (Mesothelioma)) | Bliss excess [10] | Bliss excess [11] | Bliss excess [12] | Bliss excess (SK-N-SH (Neuroblastoma)) | Bliss excess (T47D (Breast Carcinoma)) | Bliss excess (UACC-257 (Melanoma)) | Bliss excess (WM35 (Melanoma))
CC1(C)CCC(CN2CCN(c3ccc(C(=O)NS(=O)(=O)c4ccc(NCC5CCOCC5)c([N+](=O)[O-])c4)c(Oc4cnc5[nH]ccc5c4)c3)CC2)=C(c2ccc(Cl)cc2)C1 [Venetoclax] + Cc1cc2ncnn2cc1Nc1ncc2c(n1)n(C1CCOCC1)c(=O)n2C [AZD7648] (first compound max 1 µM, 7x7, partner max 10 µM) | -0.0224 | -0.0209 | -0.0487 | -0.0486 | -0.0416 | -0.117 | 0.0556 | 0.0222 | 0.0008 | -0.0246 | -0.0358 | 0.0752 | -0.056 | -0.0508 | -0.0251 | -0.0297 | -0.0125 | -0.0459 | -0.0235 | -0.0209
CN(C)CCCOc1ccc(-c2ccc3ncc4c(c3c2)n(C2CCOCC2)c(=O)n4C)cn1 [AZD0156] + C=CCn1c(=O)c2cnc(Nc3ccc(N4CCN(C)CC4)cc3)nc2n1-c1cccc(C(C)(C)O)n1 [AZD1775] (first compound max 1 µM, partner max 1 µM) | -0.0489 | -0.0058 | -0.0316 | -0.0225 | -0.0079 | -0.0615 | -0.0653 | -0.0739 | -0.0301 | 0.0156 | -0.0109 | -0.0201 | -0.0126 | -0.0467 | -0.0504 | -0.0586 | -0.0533 | 0.0108 | -0.0223 | -0.0166
Cc1c2c(nn1C)CSCc1cc(n(C)n1)CSc1cc(c3ccccc3c1)OCCCc1c(C(=O)O)n(C)c3c-2c(Cl)ccc13 [AZD5991] + CC1(C)CCC(CN2CCN(c3ccc(C(=O)NS(=O)(=O)c4ccc(NCC5CCOCC5)c([N+](=O)[O-])c4)c(Oc4cnc5[nH]ccc5c4)c3)CC2)=C(c2ccc(Cl)cc2)C1 [Venetoclax] (first compound max 1 µM, 7x7, partner max 1 µM) | -0.0233 | 0.0208 | -0.0353 | 0.009 | -0.0347 | 0.0637 | 0.0483 | 0.0174 | 0.0089 | -0.0172 | -0.0178 | 0.132 | -0.0391 | -0.03 | -0.0031 | -0.0611 | 0.151 | -0.0042 | -0.0485 | 0.0181
CC1(C)CCC(CN2CCN(c3ccc(C(=O)NS(=O)(=O)c4ccc(NCC5CCOCC5)c([N+](=O)[O-])c4)c(Oc4cnc5[nH]ccc5c4)c3)CC2)=C(c2ccc(Cl)cc2)C1 [Venetoclax] + Cn1cnc2c(F)c(Nc3ccc(Br)cc3Cl)c(C(=O)NOCCO)cc21 [Selumetinib] (first compound max 1 µM, 7x7, partner max 3 µM) | 0.0064 | 0.0238 | -0.0351 | -0.0654 | -0.0542 | -0.0498 | 0.0456 | -0.0737 | -0.0273 | 0.0019 | -0.0466 | 0.0847 | -0.0468 | -0.0531 | -0.021 | -0.0236 | 0.083 | -0.0624 | -0.0487 | 0.0543
CN(CCO)CC[C@H](CSc1ccccc1)Nc1ccc(S(=O)(=O)NC(=O)c2ccc(N3CCC([C@@H](O)c4ccccc4-c4ccc(Cl)cc4)CC3)cc2)cc1S(=O)(=O)C(F)(F)F [AZD4320] + C1CN(CCC1(C(=O)N[C@@H](CCO)C2=CC=C(C=C2)Cl)N)C3=NC=NC4=C3C=CN4 [Capivasertib] (first compound max 1 µM, 7x7, partner max 3 µM) | -0.047 | -0.064 | -0.0794 | -0.0226 | -0.0548 | -0.0284 | -0.0076 | -0.025 | -0.0037 | 0.0419 | -0.0031 | -0.0203 | -0.0351 | -0.0838 | -0.0315 | -0.0712 | -0.0363 | -0.0554 | -0.0405 | -0.017
CC(=O)Nc1cccc(-n2c(=O)n(C3CC3)c(=O)c3c(Nc4ccc(I)cc4F)n(C)c(=O)c(C)c32)c1 [Trametinib] + Cc1nc(-c2cn3c(n2)-c2ccc(-c4cnn(C(C)(C)C(N)=O)c4)cc2OCC3)n(C(C)C)n1 [Taselisib] (first compound max 1 µM, 7x7, partner max 10 µM) | 0.0957 | 0.0805 | 0.0288 | 0.122 | 0.0657 | -0.0162 | 0.119 | 0.186 | 0.0912 | 0.0825 | 0.156 | 0.183 | 0.0818 | 0.0478 | 0.173 | 0.0796 | 0.077 | 0.0046 | 0.0443 | 0.124
Cc1c2c(nn1C)CSCc1cc(n(C)n1)CSc1cc(c3ccccc3c1)OCCCc1c(C(=O)O)n(C)c3c-2c(Cl)ccc13 [AZD5991] + C[C@@H](Nc1cc(F)cc(F)c1)c1cc(C(=O)N(C)C)cc2c(=O)cc(N3CCOCC3)oc12 [AZD8186] (first compound max 1 µM, 7x7, partner max 3 µM) | 0.0008 | 0.0257 | -0.0338 | -0.0184 | 0.0125 | 0.0416 | 0.0187 | 0.0039 | -0.0481 | 0.0021 | -0.0275 | 0.0352 | -0.0288 | -0.059 | 0.0295 | 0.0356 | -0.0094 | -0.0323 | -0.0234 | 0.0064
Cc1c2c(nn1C)CSCc1cc(n(C)n1)CSc1cc(c3ccccc3c1)OCCCc1c(C(=O)O)n(C)c3c-2c(Cl)ccc13 [AZD5991] + CCN(CCO)CCCOc1ccc2c(Nc3cc(CC(=O)Nc4cccc(F)c4)[nH]n3)ncnc2c1 [AZD2811] (first compound max 1 µM, 7x7, partner max 1 µM) | 0.019 | – | 0.0096 | 0.0931 | -0.0421 | -0.108 | 0.134 | 0.0543 | 0.0123 | 0.089 | 0.0095 | 0.0493 | -0.0088 | 0.0152 | 0.0689 | 0.0467 | -0.068 | -0.0096 | – | 0.0333
Cc1cc2ncnn2cc1Nc1ncc2c(n1)n(C1CCOCC1)c(=O)n2C [AZD7648] + C[C@@H]1COCCN1C2=NC(=NC(=C2)C3(CC3)[S@](=N)(=O)C)C4=C5C=CNC5=NC=C4 [AZD6738] (first compound max 10 µM, 7x7, partner max 10 µM) | -0.0174 | 0.0104 | -0.0459 | -0.0172 | 0.042 | 0.0354 | 0.014 | 0.0234 | -0.0266 | -0.0089 | 0.0428 | -0.0087 | -0.102 | 0.0004 | 0.003 | -0.0396 | 0.0026 | 0.0444 | 0.0075 | 0.0113
CCc1c2c(nc3ccc(O)cc13)-c1cc3c(c(=O)n1C2)COC(=O)[C@]3(O)CC [SN-38] + O=C(c1cc(Cc2n[nH]c(=O)c3ccccc23)ccc1F)N1CCN(C(=O)C2CC2)CC1 [Olaparib] (first compound max 0.3 µM, 7x7, partner max 10 µM) | 0.0015 | 0.0227 | 0.0978 | 0.0125 | 0.0352 | 0.026 | – | 0.0336 | 0.0551 | 0.0571 | – | 0.0698 | -0.0716 | -0.0071 | 0.023 | 0.0386 | 0.0739 | 0.0623 | 0.0213 | 0.0733
Cc1c2c(nn1C)CSCc1cc(n(C)n1)CSc1cc(c3ccccc3c1)OCCCc1c(C(=O)O)n(C)c3c-2c(Cl)ccc13 [AZD5991] + Cn1cnc2c(F)c(Nc3ccc(Br)cc3Cl)c(C(=O)NOCCO)cc21 [Selumetinib] (first compound max 1 µM, 7x7, partner max 3 µM) | 0.0307 | -0.0093 | 0.0108 | – | -0.0774 | -0.0419 | 0.0828 | 0.0291 | -0.0362 | -0.0172 | -0.0181 | 0.0693 | -0.0345 | -0.0243 | 0.0457 | -0.0325 | -0.0515 | -0.0092 | 0.0215 | 0.0794
COc1nnc2ccc(N3CCC(c4ccc(OCCN5CCN(C)C(=O)[C@H]5C)cc4)CC3)nn12 [AZD5153] + CC1(C)CCC(CN2CCN(c3ccc(C(=O)NS(=O)(=O)c4ccc(NCC5CCOCC5)c([N+](=O)[O-])c4)c(Oc4cnc5[nH]ccc5c4)c3)CC2)=C(c2ccc(Cl)cc2)C1 [Venetoclax] (first compound max 1 µM, 7x7, partner max 1 µM) | -0.0832 | -0.0172 | -0.0216 | -0.0812 | -0.0404 | -0.0155 | -0.0394 | 0.0065 | 0.0094 | -0.0558 | -0.0863 | -0.03 | -0.0769 | – | -0.0254 | 0.0064 | 0.0011 | -0.0713 | -0.0555 | -0.0097
